# Assay results taken from patent US10689376B2, “Substituted-3H-imidazo [4,5-c] pyridine and 1H-pyrrolo[2,3-c]pyridine series of novel ectonucleotide pyrophosphatase/phosphodiesterase-1 (ENPP1) and stimulator for interferon genes (STING) modulators as cancer immunotherapeutics” (Stingray Therapeutics, Inc., priority 2017, dated 2020).
# What was measured:
# [1] = biological target: Recombinant Human ENPP-2/Autotaxin Protein (Homo sapiens (Human), UniProt Q13822); assay: ENPP2 Inhibition Assay; type: biochemical; settings: result in words
# Procedure: 2. ENPP2 Inhibition Assay
# Assay Buffer: 10 mM CaCl2, 5 mM MgCl2, 50 mM Tris, 0.02% Brij-35, pH 8.5
# Substrate: 2 mM Bis(p-Nitrophenyl) Phosphate Sodium Salt (Sigma Cat # N3002)
# Enzyme: 0.2 ng/μL Recombinant Human ENPP-2/Autotaxin Protein (R&D Cat #5255-EN)
# 96-well clear assay plates
# (§1) An eight point serial dilution of drugs was prepared in 10× in assay buffer with the final assay concentrations starting at 10 μM, 3 μM, 1 μM, 0.3 μM . . . 0 μM. A dilution of DMSO was included as a control. The assay plate was set up as follows with each well in duplicate: 15 μL assay buffer+10 μL, ENPP1 inhibitor or DMSO+50 μL Substrate+25 μL Enzyme. Both the enzyme and substrate were added to opposite sides of the well to ensure that there was no interaction until all wells had both components. The plate was then centrifuged gently for 10 seconds, followed by an incubation at 37° C. for 45 minutes. The reaction was quantified by measuring absorbance at 405 nm using the Envision.
# (§2) IC50 values are determined using GraphPad Prism 5 software. The data were entered as an X-Y plot into the software as percent inhibition for each concentration of the drug. The concentration values of the drug were log transformed and the nonlinear regression was carried out using the “sigmoidal dose-response (variable slope)” option within the GraphPad software to model the data and calculate IC50 values. The IC50 values reported are the concentration of drug at which 50% inhibition was reached.
# Saos-2 Cells = assay: ENPP1 Mineralization Assay; type: cell-based; design: key to ENPP1 Mineral assay (50% inhibition at 50 μM): +: active at 50 μM concentration; NA: Not Active; settings: for ENPP1 Mineral assay (50% inhibition at 50 μM): Alizarin Red; for inhibiting ENPP1 ability to produce mineralized nodules (FIG. 4): result in words
# Procedure: 4. ENPP1 Mineralization Assay
# Saos-2 Cells (ATCC CAT # HTB-85)
# 24-well Tissue Culture Plate
# Ascorbic Acid, 5 mg/mL (100×)
# β-Glycerophosphate, 1M (100×)
# Phosphate Buffered Saline
# Alizarin Red, 40 mM pH 4.2
# Dye Extraction Reagent, 10% Methanol+10% Acetic Acid
# Saos-2 cells were plated at a density of 1.5×10^6 cells/well and allowed to grow to 100% confluency over the following 1-2 days. Once completely confluent, the media was replaced with fresh media supplemented with 1× ascorbic acid, 1× β-glycerophosphate, and varying concentrations of ENPP1 inhibitor (if applicable). The addition of the mineralization components was considered Day 1, On Day 3, the media was gently aspirated with no wash followed by the addition of fresh media, mineralization components, and ENPP1 inhibitor (if applicable). On day 5, the media was gently aspirated and the cells were washed twice with PBS. The cells were then fixed with ice cold 70% ethanol for 1 hour at 4° C. Cells were washed once with PBS and stained with Alizarin Red for 30 minutes at room temperature with gentle rotation. Stained cells were washed three times with water for 10 minutes at room temperature with gentle rotation. After imaging cells, dye extraction reagent was added to each well and incubated for 30 minutes at room temperature. Alizarin red was quantified by measuring absorbance at a wavelength of 405 nm using the Envision.
# [2] = biological target: T1, Recombinant Human ENPP-1 Protein (Homo sapiens (Human), UniProt P22413); assay: ENPP1 Inhibition Assay; type: biochemical; settings: for inhibiting the activity of ENPP1 (FIG. 1): result in words; for IC50: substrate thymidine 5′-monophosphate p-nitrophenol ester, absorbance at 405 nm
# T1 sequence (P22413 whole entry): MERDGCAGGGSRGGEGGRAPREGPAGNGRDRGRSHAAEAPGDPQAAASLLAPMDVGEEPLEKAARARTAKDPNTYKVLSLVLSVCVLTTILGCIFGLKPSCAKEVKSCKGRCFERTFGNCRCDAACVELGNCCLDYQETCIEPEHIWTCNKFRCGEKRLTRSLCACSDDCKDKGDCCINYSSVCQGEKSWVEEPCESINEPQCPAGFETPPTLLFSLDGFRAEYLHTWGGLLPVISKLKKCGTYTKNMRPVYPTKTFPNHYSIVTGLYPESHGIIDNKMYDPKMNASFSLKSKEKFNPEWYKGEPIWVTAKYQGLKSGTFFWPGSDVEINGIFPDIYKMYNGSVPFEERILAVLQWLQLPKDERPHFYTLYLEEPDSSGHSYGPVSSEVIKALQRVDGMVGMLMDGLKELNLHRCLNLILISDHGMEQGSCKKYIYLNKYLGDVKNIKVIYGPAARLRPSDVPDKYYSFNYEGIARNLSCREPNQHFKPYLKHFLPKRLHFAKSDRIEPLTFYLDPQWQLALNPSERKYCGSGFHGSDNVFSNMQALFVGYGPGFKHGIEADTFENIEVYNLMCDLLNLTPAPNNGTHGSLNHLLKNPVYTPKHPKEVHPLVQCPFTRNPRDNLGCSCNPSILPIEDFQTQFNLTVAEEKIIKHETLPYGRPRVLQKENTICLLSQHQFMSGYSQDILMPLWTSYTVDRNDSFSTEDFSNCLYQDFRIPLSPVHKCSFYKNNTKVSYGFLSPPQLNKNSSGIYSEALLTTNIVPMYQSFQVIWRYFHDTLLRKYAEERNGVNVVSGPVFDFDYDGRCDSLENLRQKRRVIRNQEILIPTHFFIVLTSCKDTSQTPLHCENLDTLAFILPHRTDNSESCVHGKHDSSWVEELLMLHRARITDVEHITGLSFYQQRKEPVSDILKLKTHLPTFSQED
# Procedure: 1. ENPP1 Inhibition Assay
# Materials: • Assay Buffer: 1 mM CaCl2, 0.2 mM ZnCl2, 50 mM Tris, pH 9.0 • Substrate: 8 mM Thymidine 5′-monophosphate p-nitrophenol ester sodium salt (Sigma Cat # T4510) • Enzyme: 5 ng/μL Recombinant Human ENPP-1 Protein (R&D Cat #6136-EN-010) DMSO • 96-well clear assay plates
# as §1, with “81” for “15”, “μL” for “μL,”, “DMSO+5” for “DMSO+50”, “Substrate+4” for “Substrate+25”
# as §2
# [3] = biological target: T1, Recombinant Human ENPP-1 Protein; assay: ENPP1 Thermal Shift Assay; type: binding
# Procedure: 3. ENPP1 Thermal Shift Assay Materials: Recombinant Human ENPP-1 Protein (R&D Cat #6136-EN-010) Assay Buffer (1 mM CaCl2, 0.2 mM ZnCl2, 50 mM Tris, pH 9.0) 5000× SYPRO Orange (ThermoFisher cat # S6651) 384-well PCR Plates Methods: Each drug was prepared as a 10× solution in the assay buffer and SYPRO Orange was diluted to 10× concentration in water. Wells were set up in duplicate in a 384-well PCR plate as follows: 14 μL assay buffer, 2 μL ENPP1 Inhibitor or DMSO, 2 μL (0.5 μg) ENPP1 protein. Each well was mixed and incubated on ice for 5 minutes. Post incubation, 2 μL of SYPRO Orange was mixed into each well and followed by a gentle centrifugation. The protein melt reaction was run using ViiA7 software with temperatures beginning at 25° C. and increasing by 0.05° C./s to the maximum temperature of 99° C.
Compound,IC50 [2] [nM],Tm (midpoint of the protein unfolding transition) of ENPP1 in the presence of compound ([3]; Tm of ENPP1 alone 64.2° C.) [°C],inhibiting the activity of ENPP2 (FIGS. 2A and 2B) [1],selectivity ENPP1 versus ENPP2 [1],ENPP1 Mineral assay (50% inhibition at 50 μM) (Saos-2 Cells),inhibiting the activity of ENPP1 (FIG. 1) [2],stability of recombinant ENPP1 protein (FIG. 3) ([3]; result in words),inhibiting ENPP1 ability to produce mineralized nodules (FIG. 4) (Saos-2 Cells)
"COc1ccc(NC(=O)CSc2nc3c(C)c(C#N)ncc3[nH]2)cc1O [Compound 78, 2-((6-Cyano-7-methyl-3H-imidazo[4,5-c]pyridin-2-yl)thio)-N-(3-hydroxy-4-methoxyphenyl)acetamide]",79,–,ineffective in inhibiting the activity of ENPP2,selective at inhibiting ENPP1 but not ENPP2,+,effective in inhibiting the activity of ENPP1,–,–
"O=C(CSc1nc2cnc(C(F)(F)F)cc2[nH]1)Nc1ccc(F)c(O)c1 [Compound 45, N-(4-fluoro-3-hydroxyphenyl)-2-((6-(trifluoromethyl)-1H-imidazo[4,5-c]pyridin-2-yl)thio)acetamide]",651,–,–,–,+,–,–,–
"COc1ccc(NC(=O)CSc2nc3cnc(C(F)(F)F)cc3[nH]2)cc1F [Compound 38, N-(3-fluoro-4-methoxyphenyl)-2-((6-(trifluoromethyl)-1H-imidazo[4,5-c]pyridin-2-yl)thio)acetamide]",487,–,–,–,+,–,–,–
"COc1cc(NC(=O)CSc2nc3cc(Cl)ncc3[nH]2)ccc1O [Compound 22, 2-((6-chloro-3H-imidazo[4,5-c]pyridin-2-yl)thio)-N-(4-hydroxy-3-methoxyphenyl)acetamide]",1160,–,–,–,+,–,–,–

# The next lines start with results.
IC50 [2] [nM],Tm (midpoint of the protein unfolding transition) of ENPP1 in the presence of compound ([3]; Tm of ENPP1 alone 64.2° C.) [°C],Compound,inhibiting the activity of ENPP2 (FIGS. 2A and 2B) [1],selectivity ENPP1 versus ENPP2 [1],ENPP1 Mineral assay (50% inhibition at 50 μM) (Saos-2 Cells),inhibiting the activity of ENPP1 (FIG. 1) [2],stability of recombinant ENPP1 protein (FIG. 3) ([3]; result in words),inhibiting ENPP1 ability to produce mineralized nodules (FIG. 4) (Saos-2 Cells)
181,–,"COc1ccc(NC(=O)CSc2nc3cnc(C(F)(F)F)cc3[nH]2)cc1O [Compound 31, N-(3-hydroxy-4-methoxyphenyl)-2-((6-(trifluoromethyl)-1H-imidazo[4,5-c]pyridin-2-yl)thio)acetamide]",–,–,+,–,–,–
86,67.84,"COc1ccc(NC(=O)CSc2nc3cc(Cl)ncc3[nH]2)cc1O [Compound 21, 2-((6-chloro-3H-imidazo[4,5-c]pyridin-2-yl)thio)-N-(3-hydroxy-4-methoxyphenyl)acetamide]",ineffective in inhibiting the activity of ENPP2,selective at inhibiting ENPP1 but not ENPP2,+,effective in inhibiting the activity of ENPP1,effective in increasing the stability of recombinant ENPP1 protein,effective in inhibiting ENPP1 ability to produce mineralized nodules
170,–,"O=C(CSc1nc2cnc(Cl)cc2[nH]1)Nc1ccc(F)c(O)c1 [Compound 37, 2-((6-chloro-1H-imidazo[4,5-c]pyridin-2-yl)thio)-N-(4-fluoro-3-hydroxyphenyl)acetamide]",–,–,+,–,–,–
114,–,"COc1ccc(NC(=O)CSc2nc3cc(C#N)ncc3[nH]2)cc1OC [Compound 68, 2-((6-Cyano-3H-imidazo[4,5-c]pyridin-2-yl)thio)-N-(3,4-dimethoxyphenyl)acetamide]",–,–,+,effective in inhibiting the activity of ENPP1,–,effective in inhibiting ENPP1 ability to produce mineralized nodules
